Results on eight compounds are retold here after patent US11076595B2, “1-(n,n-disubstituted carbamoyl) 4-(substituted sulfonyl)triazolin-5-one derivative, 4-(n,n-disubstituted carbamoyl) 1-(substituted sulfonyl)triazolin-5-one derivative, and herbicide containing said derivative as active ingredient” (HOKKO CHEMICAL INDUSTRY CO., LTD., priority 2017, dated 2021).

Holding throughout (format): in vivo
In experiment [1] the test system is Echinochloa crus-galli. Briefly: Test Example 1: herbicidal effect test by soil treatment in paddy field. The settings on record: 120 g/10a, paddy soil treatment just after sowing, 14 days after treatment. In a few lines: (§1)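 Emulsifiable-concentrate formulation, water-diluted, dosed onto flooded paddy pots at 120 g a.i./10 are directly after sowing. Readout: % suppression by dry weight relative to untreated, 14 d, duplicate plots.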

The subject of experiment [2] is Scirpus juncoides. The description is as above. The settings on record: 120 g/10a, paddy soil treatment just after sowing, 14 days after treatment. In a few lines:
as §1

In experiment [3] the test system is Lindernia pyxidaria. The experiment is described as above. To be noted: 120 g/10a, paddy soil treatment just after sowing, 14 days after treatment. In a few lines:
as §1

The test system of experiment [4] is Monochoria vaginalis. The description is as above. The settings on record: 120 g/10a, paddy soil treatment just after sowing, 14 days after treatment. The method in brief: as §1
For experiment [5], the system named is Echinochloa crus-galli. Put plainly: Test Example 2: herbicidal effect test by treatment during growing period in paddy field. The settings on record: treatment 7 days after sowing, 120 g/10a, evaluated 14 days after treatment. The method in brief:
(§2)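 Read-out is weed suppression (%), 1 − mean dry weight treated/untreated ×100, taken 14 days after treatment with duplicate plots. Treatment: water-diluted emulsifiable concentrate added dropwise to flooded paddy-soil pots 7 days post-sowing at 120 g active ingredient per 10 are.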

Experiment [6] concerns Scirpus juncoides. The description is as above. To be noted: treatment 7 days after sowing, 120 g/10a, evaluated 14 days after treatment. The method in brief: as §2
In experiment [7] the test system is Lindernia pyxidaria. The experiment is described as above. The settings on record: treatment 7 days after sowing, 120 g/10a, evaluated 14 days after treatment. The method in brief: as §2
The subject of experiment [8] is Monochoria vaginalis. The experiment is described as above. The settings on record: treatment 7 days after sowing, 120 g/10a, evaluated 14 days after treatment. The method in brief:
as §2

The test system of experiment [9] is Echinochloa crus-galli. Put plainly: Test Example 4: herbicidal effect test by foliage treatment in upland field. The settings on record: upland field foliage treatment 7 days after sowing; 120 g/10a; evaluated 14 days after treatment. The method in brief: (§3)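 Application of 120 g active ingredient per 10 are, as a water-diluted emulsifiable concentrate sprayed 7 days after sowing into alluvial soil. Effect is expressed as percent dry-weight reduction versus untreated plots at day 14, duplicate plots.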

For experiment [10], the system named is Amaranthus viridis. The description is as above. The settings on record: upland field foliage treatment 7 days after sowing; 120 g/10a; evaluated 14 days after treatment. In a few lines: as §3
Experiment [11] concerns Chenopodium album. Described as above. To be noted: upland field foliage treatment 7 days after sowing; 120 g/10a; evaluated 14 days after treatment. In a few lines:
as §3

Experiment [12] deals with crabgrass. The experiment is described as above. The settings on record: upland field foliage treatment 7 days after sowing; 120 g/10a; evaluated 14 days after treatment. The method in brief: as §3
Experiment [13] relates to Echinochloa crus-galli. Put plainly: Test Example 3: herbicidal effect test by soil treatment in upland field. To be noted: upland field soil treatment 1 day after sowing; 120 g/10a; evaluated 14 days after treatment. In a few lines:
(§4)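 Pre-emergence soil spray applied one day after sowing 20 seeds of each weed into surface soil, dosed at 120 g a.i. per 10 are in 100 L water per 10 are. After 14 days, plants weighed dry; suppression (%) calculated against untreated plots, duplicate plots per concentration.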

For experiment [14], the system named is Amaranthus viridis. The description is as above. The settings on record: upland field soil treatment 1 day after sowing; 120 g/10a; evaluated 14 days after treatment. The method in brief: as §4
In experiment [15] the test system is Chenopodium album. The description is as above. To be noted: upland field soil treatment 1 day after sowing; 120 g/10a; evaluated 14 days after treatment. In a few lines:
as §4

In experiment [16] the test system is crabgrass. Described as above. To be noted: upland field soil treatment 1 day after sowing; 120 g/10a; evaluated 14 days after treatment. The method in brief: as §4

Regarding `CC(C)N(C(=O)n1ncn(S(=O)(=O)C2CC2)c1=O)c1ccc(F)c(F)c1F` [Compound 1-203], the “weed suppression rate, Echinochloa crus-galli” value with Echinochloa crus-galli [1] and with Echinochloa crus-galli [5] was 100% each time. Besides, the “weed suppression rate, Scirpus juncoides” value with Scirpus juncoides [2] and in the experiment with Scirpus juncoides [6] was 100% throughout. Also, the entries for the “weed suppression rate, Lindemia pyxidaria” value in the experiment on Lindernia pyxidaria [3] and in the experiment with Lindernia pyxidaria [7] were 100% and 80%, respectively. Besides, the “weed suppression rate, Monochoria vaginalis” value in the experiment on Monochoria vaginalis [4] is recorded as 90%; in the experiment on Monochoria vaginalis [8], 100%. In addition, the “herbicidal effect (weed suppression rate), Echinochloa crus-galli” value (“herbicidal effect … Echinochloa crus-galli” for short) with Echinochloa crus-galli [9] amounted to 100%; in the experiment with Echinochloa crus-galli [13] it was 80%. Also, the “herbicidal effect (weed suppression rate), Amaranthus viridis” value (“herbicidal effect … Amaranthus viridis” for short) worked out at 100% in the experiment with Amaranthus viridis [10] and 90% with Amaranthus viridis [14]. Also, the results for the “herbicidal effect (weed suppression rate), Chenopodium album” value (“herbicidal effect … Chenopodium album” for short) in the experiment with Chenopodium album [11] and in the experiment with Chenopodium album [15] were 80% and 60%, respectively. Also, the “herbicidal effect (weed suppression rate), Crabgrass” value (“herbicidal effect … Crabgrass” below) with crabgrass [12] turned out to be 100%; with crabgrass [16] it was 80%.
Turning to `CC(C)N(C(=O)n1ncn(S(=O)(=O)C2CC2)c1=O)c1ccc(F)cc1Cl` [Compound 1-214], the “weed suppression rate, Echinochloa crus-galli” value in the experiment with Echinochloa crus-galli [1] and in the experiment on Echinochloa crus-galli [5] was 90% in each case. Also, the “weed suppression rate, Scirpus juncoides” value in the experiment with Scirpus juncoides [2] and with Scirpus juncoides [6] was 90% each time. The “weed suppression rate, Lindemia pyxidaria” value with Lindernia pyxidaria [3] and with Lindernia pyxidaria [7] was 80% throughout. Further, the “weed suppression rate, Monochoria vaginalis” value with Monochoria vaginalis [4] and in the experiment on Monochoria vaginalis [8] was 80% throughout. For the same compound, the “herbicidal effect … Echinochloa crus-galli” value with Echinochloa crus-galli [9] and in the experiment on Echinochloa crus-galli [13] was 80% throughout. The “herbicidal effect … Amaranthus viridis” value in the experiment on Amaranthus viridis [10] and in the experiment with Amaranthus viridis [14] was 90% in each case. For the same compound, the “herbicidal effect … Chenopodium album” value in the experiment on Chenopodium album [11] and in the experiment on Chenopodium album [15] was 80% in each case. In addition, the “herbicidal effect … Crabgrass” value in the experiment on crabgrass [12] and in the experiment on crabgrass [16] was 90% throughout.
For `CC(C)N(C(=O)n1ncn(S(=O)(=O)C2CC2)c1=O)c1ccc(Cl)cc1F` [Compound 1-215], the “weed suppression rate, Echinochloa crus-galli” value in the experiment with Echinochloa crus-galli [1] and in the experiment on Echinochloa crus-galli [5] was 100% in each case. Moreover, the “weed suppression rate, Scirpus juncoides” value in the experiment with Scirpus juncoides [2] and with Scirpus juncoides [6] was 100% in each case. Further, the “weed suppression rate, Lindemia pyxidaria” value with Lindernia pyxidaria [3] and with Lindernia pyxidaria [7] was 100% throughout. For the same compound, the “weed suppression rate, Monochoria vaginalis” value in the experiment on Monochoria vaginalis [4] and in the experiment with Monochoria vaginalis [8] was 100% throughout. The entries for the “herbicidal effect … Echinochloa crus-galli” value in the experiment on Echinochloa crus-galli [9] and in the experiment on Echinochloa crus-galli [13] were 90% and 80%, respectively. In addition, the “herbicidal effect … Amaranthus viridis” value with Amaranthus viridis [10] is reported as 60%; in the experiment with Amaranthus viridis [14], 80%. Moreover, the “herbicidal effect … Chenopodium album” value with Chenopodium album [11] was 60%; in the experiment on Chenopodium album [15] it was 80%. Besides, the “herbicidal effect … Crabgrass” value in the experiment on crabgrass [12] is recorded as 90%; in the experiment on crabgrass [16] it was 80%.
For `CC(C)N(C(=O)n1ncn(S(=O)(=O)C(C)C)c1=O)c1cccnc1F` [Compound 1-241], the “weed suppression rate, Echinochloa crus-galli” value with Echinochloa crus-galli [1] and with Echinochloa crus-galli [5] was 100% throughout. The “weed suppression rate, Scirpus juncoides” value in the experiment on Scirpus juncoides [2] and with Scirpus juncoides [6] was 80% in each case. Besides, the “weed suppression rate, Lindemia pyxidaria” value in the experiment with Lindernia pyxidaria [3] and in the experiment on Lindernia pyxidaria [7] was 90% throughout. In addition, the “weed suppression rate, Monochoria vaginalis” value in the experiment on Monochoria vaginalis [4] is given as 90%; in the experiment on Monochoria vaginalis [8] it was 80%. Further, the “herbicidal effect … Echinochloa crus-galli” value in the experiment on Echinochloa crus-galli [9] and with Echinochloa crus-galli [13] was 90% throughout. The “herbicidal effect … Amaranthus viridis” value with Amaranthus viridis [10] is recorded as 50%; in the experiment with Amaranthus viridis [14] it was 90%. Besides, the “herbicidal effect … Chenopodium album” value in the experiment on Chenopodium album [11] amounted to 70%; in the experiment on Chenopodium album [15] it was 90%. Moreover, the “herbicidal effect … Crabgrass” value in the experiment on crabgrass [12] and with crabgrass [16] was 90% in each case.
In the case of `CC(C)N(C(=O)n1ncn(S(=O)(=O)C2CC2)c1=O)c1ccc(Cl)cn1` [Compound 1-244], the “weed suppression rate, Echinochloa crus-galli” value in the experiment with Echinochloa crus-galli [1] and with Echinochloa crus-galli [5] was 100% each time. Besides, the “weed suppression rate, Scirpus juncoides” value with Scirpus juncoides [2] and in the experiment with Scirpus juncoides [6] was 90% throughout. Moreover, the “weed suppression rate, Lindemia pyxidaria” value in the experiment with Lindernia pyxidaria [3] and with Lindernia pyxidaria [7] was 100% throughout. Further, the “weed suppression rate, Monochoria vaginalis” value with Monochoria vaginalis [4] and with Monochoria vaginalis [8] was 90% in each case. In addition, the results for the “herbicidal effect … Echinochloa crus-galli” value in the experiment on Echinochloa crus-galli [9] and with Echinochloa crus-galli [13] were 90% and 80%, respectively. Moreover, the “herbicidal effect … Amaranthus viridis” value is recorded as 0% in the experiment on Amaranthus viridis [10] and 50% with Amaranthus viridis [14]. Also, the “herbicidal effect … Chenopodium album” value in the experiment on Chenopodium album [11] and with Chenopodium album [15] was 40% each time. Besides, the “herbicidal effect … Crabgrass” value with crabgrass [12] and in the experiment on crabgrass [16] was 90% throughout.
`CC(C)N(C(=O)n1ncn(S(=O)(=O)C2CC2)c1=O)c1ccc(Cl)nc1Cl` [Compound 1-249]: the “weed suppression rate, Echinochloa crus-galli” value in the experiment on Echinochloa crus-galli [1] and with Echinochloa crus-galli [5] was 100% each time. Moreover, the “weed suppression rate, Scirpus juncoides” value in the experiment on Scirpus juncoides [2] and in the experiment with Scirpus juncoides [6] was 90% in each case. The “weed suppression rate, Lindemia pyxidaria” value in the experiment with Lindernia pyxidaria [3] and in the experiment with Lindernia pyxidaria [7] was 90% each time. Besides, the “weed suppression rate, Monochoria vaginalis” value in the experiment on Monochoria vaginalis [4] and with Monochoria vaginalis [8] was 90% in each case. In addition, the “herbicidal effect … Echinochloa crus-galli” value with Echinochloa crus-galli [9] and in the experiment on Echinochloa crus-galli [13] was 80% throughout. Besides, the “herbicidal effect … Amaranthus viridis” value in the experiment on Amaranthus viridis [10] and with Amaranthus viridis [14] was 90% throughout. In addition, the “herbicidal effect … Chenopodium album” value in the experiment with Chenopodium album [11] and in the experiment on Chenopodium album [15] was 80% throughout. In addition, the “herbicidal effect … Crabgrass” value with crabgrass [12] and in the experiment on crabgrass [16] was 90% in each case.
Take `Cc1nn(C(=O)N(c2ccc(F)cc2F)C(C)C)c(=O)n1S(=O)(=O)C1CC1` [Compound 1-257]: the “weed suppression rate, Echinochloa crus-galli” value in the experiment with Echinochloa crus-galli [1] and in the experiment on Echinochloa crus-galli [5] was 90% each time. For the same compound, the “weed suppression rate, Scirpus juncoides” value in the experiment on Scirpus juncoides [2] and in the experiment on Scirpus juncoides [6] was 90% in each case. For the same compound, the “weed suppression rate, Lindemia pyxidaria” value in the experiment with Lindernia pyxidaria [3] and in the experiment on Lindernia pyxidaria [7] was 80% throughout. Also, the “weed suppression rate, Monochoria vaginalis” value in the experiment on Monochoria vaginalis [4] and in the experiment with Monochoria vaginalis [8] was 80% each time. The “herbicidal effect … Echinochloa crus-galli” value in the experiment with Echinochloa crus-galli [9] and with Echinochloa crus-galli [13] was 80% throughout. For the same compound, the “herbicidal effect … Amaranthus viridis” value in the experiment on Amaranthus viridis [10] and with Amaranthus viridis [14] was 90% each time. Further, the “herbicidal effect … Chenopodium album” value in the experiment on Chenopodium album [11] and in the experiment with Chenopodium album [15] was 80% throughout. Further, the “herbicidal effect … Crabgrass” value in the experiment with crabgrass [12] and in the experiment with crabgrass [16] was 90% in each case.
With `CC(C)N(C(=O)n1ncn(S(=O)(=O)C2CCC2)c1=O)c1ccc(F)cc1F` [Compound 1-269], the “weed suppression rate, Echinochloa crus-galli” value in the experiment on Echinochloa crus-galli [1] and in the experiment on Echinochloa crus-galli [5] was 100% in each case. The “weed suppression rate, Scirpus juncoides” value with Scirpus juncoides [2] and in the experiment with Scirpus juncoides [6] was 90% in each case. In addition, the “weed suppression rate, Lindemia pyxidaria” value with Lindernia pyxidaria [3] and in the experiment with Lindernia pyxidaria [7] was 100% each time. The results for the “weed suppression rate, Monochoria vaginalis” value with Monochoria vaginalis [4] and in the experiment with Monochoria vaginalis [8] were 100% and 90%, respectively. Moreover, the “herbicidal effect … Echinochloa crus-galli” value in the experiment on Echinochloa crus-galli [9] is recorded as 80%; in the experiment with Echinochloa crus-galli [13], 90%. Moreover, the “herbicidal effect … Amaranthus viridis” value with Amaranthus viridis [10] and in the experiment on Amaranthus viridis [14] was 90% in each case. Also, the “herbicidal effect … Chenopodium album” value with Chenopodium album [11] is given as 80%; in the experiment with Chenopodium album [15] it was 90%. The “herbicidal effect … Crabgrass” value with crabgrass [12] and in the experiment with crabgrass [16] was 90% throughout.
